Reference: patent US20170182077A1, “METHODS AND PHARMACEUTICAL COMPOSITIONS FOR THE TREATMENT OF ACUTE EXACERBATIONS OF CHRONIC OBSTRUCTIVE PULMONARY DISEASE” (INSERM (INSTITUT NATIONAL DE LA SANTÉ ET DE LA RECHERCHE …, priority 2014, published 2017)

What was measured:
[1] = system: lung cells (NKT cells) from Air and COPD mice; test: Cytokine production by total lung cells stimulated with alpha-GalactosylCeramide (ELISA); type: cell-based, C57B1/6 mice; conditions: αGC 100 ng/ml, 48 hrs; for production of IL-22: after Sp challenge vs non infected, ELISA of supernatants
Procedure: FIG. 3—Lung cells from Air and COPD mice were treated with αGC (100 ng/ml) or not (Ctl, non stimulated) for 48 hrs. The concentrations of IL-22, IL-17, IFN-γ and IL-4 were analyzed by ELISA in the supernatants. Values represented the mean±SEM.
C57B1/6 mice were exposed to CS generated from 5 cigarettes per day, 5 days a week, over a period of 12 weeks using a smoking machine (Emka, Scireq, Canada).
Mice were inoculated with a clinical isolate of S. pneumoniae serotype 1 (Sp) (5×10^4 cfu). Bacteria stocks were kept frozen at −80° C. Bacteria were thawn just before infection, and the number of cfu was checked on chocolate plates. Infection was performed by intranasal route (50 μl/mouse).
Cytokine production was analyzed in total lung cells. For this, 5×10^5 lung cells were seeded on 96-well plates and then stimulated with alpha-GalactosylCeramide, or α-GC (100 ng/ml), and coated anti-CD3 Ab. Forty-eight hours later, supernatants were collected and analyzed for IFN-γ, IL-4, IL-17 and IL-22 concentration by ELISA (R&D Systems).

[2] = system: peripheral blood mononuclear cells (PBMC); test: Th17 cytokine secretion by peripheral blood mononuclear cells exposed to S. pneumoniae or PHA; type: cell-based, human; conditions: PHA 1 μg/ml, supernatants after 24 h
Procedure: Peripheral blood and induced or spontaneous sputum were collected in stable COPD patients (n=10), in smokers (without COPD, n=13)) and in non smoker healthy controls (n=14) (CPP 2008-A00690-55) in order to evaluate ex vivo the Th17 response to infection with S. pneumoniae. Peripheral blood mononuclear cells (PBMC) were purified on Ficoll Paque gradient and 3×10^6 cells/ml in complete RPMI1640 were exposed to S. pneumoniae (MOI=2) or to a positive control, phytohemagglutinin (1 μg/ml) (PHA, Difco). After 90 min, antibiotics were added to stop bacteria growth and supernatants were collected after 24 h incubation. In parallel, another batch of cells was incubated with brefeldin-A (10 μg/ml, Sigma) for 4 h before collection and was used for intracellular immuno-staining of cytokines in lymphocytes.

[3] = pulmonary cells from Air and COPD mice, after Sp infection, ELISA

| Molecule | IL-17 production ([1]; pulmonary cells from Air and COPD mice, after Sp challenge, ELISA) | levels of IFN-y [1, 3] | levels of IL-4 [1, 3] | production of IL-22 ([1]; pulmonary cells from Air mice) | production of IL-22 ([1]; pulmonary cells from COPD mice) | response (secretion, mainly IL-17 and IL-22) ([2]; PBMC of COPD patients) | levels of IL-17 and IL-22 ([2]; PBMC of non-smokers and smokers) |
| --- | --- | --- | --- | --- | --- | --- | --- |
| CCCCCCCCCCCCCCCCCCCCCCCCCC(=O)N[C@@H](CO[C@H]1O[C@H](CO)[C@H](O)[C@H](O)[C@H]1O)[C@H](O)[C@H](O)CCCCCCCCCCCCCC [alpha-GalactosylCeramide] | failed to increase IL-17 production | higher levels | higher levels | higher production of IL-22 | absent |  |  |
| phytohemagglutinin [PHA] |  |  |  |  |  | partially altered | significantly increased |
